Data taken from patent US6103767A, “Physiologically active substances TKR1785's, process for the preparation thereof, and microbe” (Takara Shuzo Co., Ltd., priority 1996, dated 2000).
≈ marks a conversion by molar mass, not a printed value.

How the values were obtained:
[1] = system: Aspargillus fumigatus TIMM1776; assay: Antifungal activity, liquid medium dilution method; assay type: cell-based; settings: Aspargillus fumigatus TIMM1776, BHI medium; for IC50: read-out: 50% inhibitory concentration (in parentheses); for MIC: read-out: Minimal inhibitory concentration
Protocol: (§1) The antifungal activity of the above substance TKR1785 against various microorganisms was investigated. Using the liquid medium dilution method, the concentration which caused substantially complete Inhibition of growth was determined as minimal inhibitory concentration (μg/ml). The concentration causing a partial inhibition of growth was also determined as 50% inhibitory concentration (μg/ml) and is shown in parentheses of table 2. In the table, YNBG represents a medium containing 0.67% of yeast nitrogen base (Difco) and 1% of glucose. BHI represents a medium containing 0.5% of brain heart infusion bouillon (Nissui Pharmaceutical). YNBG-Tween represents a medium containing 0.67% of yeast nitrogen base, 0.5% bactocasitone, 2% of glucose, and 1% of Tween 40.

[2] = system: Candida albicans TIMM0136; assay: Antifungal activity, liquid medium dilution method; assay type: cell-based; settings: Candida albicans TIMM0136, YNBG medium; for IC50: partial inhibition of growth, read-out: 50% inhibitory concentration (in parentheses); for MIC: substantially complete inhibition of growth, read-out: Minimal inhibitory concentration
Protocol: as §1

Candida kefir TIMM0301 = assay: Antifungal activity, liquid medium dilution method; assay type: cell-based; settings: Candida kefir TIMM0301, YNBG medium; for MIC: read-out: Minimal inhibitory concentration
Protocol: as §1

[3] = system: Cryptococcus neoformans TIMM0354; assay: Antifungal activity, liquid medium dilution method; assay type: cell-based; settings: Cryptococcus neoformans TIMM0354, YNBG medium; for IC50: read-out: 50% inhibitory concentration (in parentheses); for MIC: read-out: Minimal inhibitory concentration
Protocol: as §1

ICR mice = assay: Toxicity in mice, intraperitoneal; assay type: in vivo; settings: intraperitoneally, 50 mg/kg
[4] = system: Malassezia furfur TIMM2782; assay: Antifungal activity, liquid medium dilution method; assay type: cell-based; settings: Malassezia furfur TIMM2782, YNBG-Tween medium; read-out: 50% inhibitory concentration (in parentheses)
Protocol: as §1

[5] = system: phospholipase A2 (derived from porcine pancreas); assay: Phospholipase A2 inhibitory activity ([14C]palmitic acid release from [14C]phosphatidylcholine); assay type: biochemical
Protocol: (§2) The inhibitory activity of TKR1785-I against phospholipase A2 (derived from porcine pancreas) and leukotriene (LT) C4 synthase (derived from the guinea-pig lung), which are enzymes related to the immune system, was determined. Phospholipase A2 activity was assayed for a hexane extract under acidic conditions by determining the [^14 C]palmitic acid released from [^14 C]phosphatidylcholine. LTC4 synthase activity was assayed by determining the yield of LTC4 from LTA4 by the RIA method.

[6] = system: leukotriene (LT) C4 synthase (derived from the guinea-pig lung); assay: LTC4 synthase inhibitory activity (yield of LTC4 from LTA4 by RIA); assay type: biochemical
Protocol: as §2

[7] = system: Mixed lymphocyte reaction (C57BL/6 responder cells, BALB/c stimulator cells); assay: Mixed lymphocyte reaction (MLR) inhibitory activity, 3H-thymidine uptake; assay type: cell-based, mice; settings: mouse spleen cells, 3H-thymidine uptake vs sample-free group, read-out: 50% inhibitory concentration, MLR-inhibitory activity
Protocol: From C57BL/6 and BALB/c mice, the spleen was isolated and homogenized in a medium to provide a cell suspension. The cell suspension derived from C57BL/6 mice was passed through a nylon wool column to prepare a T cell-rich fraction (responder cells). The BALB/c-derived cell suspension was irradiated with X-rays to prepare stimulator cells. The responder cells and stimulator cells were mixed in a ratio of 1:1 and incubated in a CO2 incubator for 4 days. Following addition of 3H-thymidine, the cells were further culturen overnight. The cells were then recovered and the amount of ^3 H-thymidine uptake was determined. The samples (500, 125, 31.2, and 7.8 μg/ml solutions of dimethyl sulfoxide diluted with the medium) were respectively added in a proportion of 0.5% at mixing the responder cells with the stimulator cells to final concentrations of 25 to 0.039 μg/ml. The inhibitory activity was determined by comparison with the 3H-thymidine uptake in the sample-free group.

[8] = Solubility in various solvents; assay type: physicochemical

CCCCCCCCCCCCCC(O)CC(O)C(N)CC(=O)N[C@H](C(=O)NC(CO)CO)[C@@H](C)CC (single isomer, unassigned) [TKR1785-II]
IC50 [1]: 25 µg/mL (≈ 47 µM)
MIC [1]: 50 µg/mL (≈ 94 µM)
IC50 [2]: 6.25 µg/mL (≈ 11.8 µM)
MIC [2]: 12.5 µg/mL (≈ 23.5 µM)
IC50 (Candida kefir TIMM0301; read-out: 50% inhibitory concentration (in parentheses)): 6.25 µg/mL (≈ 11.8 µM)
MIC (Candida kefir TIMM0301): 12.5 µg/mL (≈ 23.5 µM)
IC50 [3]: 6.25 µg/mL (≈ 11.8 µM)
MIC [3]: 12.5 µg/mL (≈ 23.5 µM)
Toxic response (ICR mice): no toxic response was found

CCCCCCCCCCCCCC(O)CC(O)C(N)CC(=O)N[C@H](C(=O)NC(CO)CO)C(C)C (single isomer, unassigned) [TKR1785-I]
IC50 [1]: 3.13 µg/mL (≈ 6.05 µM)
MIC [1]: 25 µg/mL (≈ 48.3 µM)
IC50 [2]: 6.25 µg/mL (≈ 12.1 µM)
MIC [2]: 12.5 µg/mL (≈ 24.1 µM)
MIC (Candida kefir TIMM0301): 6.25 µg/mL (≈ 12.1 µM)
IC50 [3]: 3.13 µg/mL (≈ 6.05 µM)
MIC [3]: 6.25 µg/mL (≈ 12.1 µM)
IC50 [4]: 12.5 µg/mL (≈ 24.1 µM)
Inhibition (%) ([5]; Phospholipase A2, test concentration 10 μg/ml): 33%
Inhibition (%) ([5]; Phospholipase A2, test concentration 100 μg/ml): 92%
Inhibition (%) ([6]; test concentration 30 μg/ml): 21%
Inhibition (%) ([6]; test concentration 300 μg/ml): 98%
IC50 [7]: 0.41 µg/mL (≈ 0.792 µM)
Toxic response (ICR mice): no toxic response was found
Solubility in chloroform and hexane ([8]; chloroform, hexane): only sparingly soluble in chloroform and hexane
Solubility in methanol and water ([8]; methanol, water): soluble in methanol and water
